Measurements published in article PMC9389588, “1,6-epi-Cyclophellitol Cyclosulfamidate Is a Bona Fide Lysosomal α-Glucosidase Stabilizer for the Treatment of Pompe Disease” (Journal of the American Chemical Society, 2022).

Target: T1, ER α-glucosidase II (GANAB) (Homo sapiens, UniProt Q14697)
T1 construct: GANAB (from Pompe Disease Fibroblast Lysates); endogenous in cells; host or cells: human fibroblasts (lysate)
T1 sequence (Q14697 29-944): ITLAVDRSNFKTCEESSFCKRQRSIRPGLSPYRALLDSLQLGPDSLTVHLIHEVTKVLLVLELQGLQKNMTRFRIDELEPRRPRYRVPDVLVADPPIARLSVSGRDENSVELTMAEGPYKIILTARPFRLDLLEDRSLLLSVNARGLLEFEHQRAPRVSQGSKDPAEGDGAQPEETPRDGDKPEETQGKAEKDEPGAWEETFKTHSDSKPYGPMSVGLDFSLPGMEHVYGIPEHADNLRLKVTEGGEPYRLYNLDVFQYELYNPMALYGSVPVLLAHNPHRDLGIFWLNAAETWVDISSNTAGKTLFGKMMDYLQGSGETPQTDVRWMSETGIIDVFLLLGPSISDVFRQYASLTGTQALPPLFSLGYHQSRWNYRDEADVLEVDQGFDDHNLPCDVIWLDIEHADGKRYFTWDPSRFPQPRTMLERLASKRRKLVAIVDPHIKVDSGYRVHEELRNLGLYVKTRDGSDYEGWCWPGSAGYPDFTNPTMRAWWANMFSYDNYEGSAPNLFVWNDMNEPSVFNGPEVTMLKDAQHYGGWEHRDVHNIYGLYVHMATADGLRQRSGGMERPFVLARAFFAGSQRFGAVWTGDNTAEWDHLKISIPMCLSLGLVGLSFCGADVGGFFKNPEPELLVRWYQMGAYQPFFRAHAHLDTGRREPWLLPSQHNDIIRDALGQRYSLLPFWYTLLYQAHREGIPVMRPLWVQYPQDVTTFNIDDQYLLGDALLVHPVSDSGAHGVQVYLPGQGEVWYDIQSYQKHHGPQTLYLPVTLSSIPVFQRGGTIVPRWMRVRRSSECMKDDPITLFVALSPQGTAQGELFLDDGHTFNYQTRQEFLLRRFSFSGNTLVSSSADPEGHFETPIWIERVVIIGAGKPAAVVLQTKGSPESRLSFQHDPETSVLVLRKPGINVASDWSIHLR
T1 sequence (P14314 15-528 partner): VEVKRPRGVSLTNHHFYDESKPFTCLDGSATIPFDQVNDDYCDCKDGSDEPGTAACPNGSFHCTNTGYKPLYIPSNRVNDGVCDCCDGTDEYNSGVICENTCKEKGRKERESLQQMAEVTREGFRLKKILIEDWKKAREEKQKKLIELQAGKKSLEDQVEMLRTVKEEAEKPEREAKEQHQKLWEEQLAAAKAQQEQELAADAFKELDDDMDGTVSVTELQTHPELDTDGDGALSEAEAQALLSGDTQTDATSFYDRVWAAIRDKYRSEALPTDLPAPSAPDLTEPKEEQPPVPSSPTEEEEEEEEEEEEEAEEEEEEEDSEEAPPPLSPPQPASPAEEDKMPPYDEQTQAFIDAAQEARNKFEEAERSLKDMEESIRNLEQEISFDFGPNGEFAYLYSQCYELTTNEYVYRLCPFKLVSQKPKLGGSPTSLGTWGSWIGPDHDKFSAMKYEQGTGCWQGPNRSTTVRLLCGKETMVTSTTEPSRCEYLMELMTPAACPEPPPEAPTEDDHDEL
Assay: in vitro apparent IC50, GANAB in fibroblast lysates, 4-MU-α-D-glucopyranoside
Type: biochemical
Details: apparent IC50; Pompe disease fibroblast lysates; pH 7.0; mean ± SD

Structure (SMILES) | IC50
O=S1(=O)N[C@H]2[C@H](CO)[C@@H](O)[C@H](O)[C@@H](O)[C@H]2O1 [compound 6] | 47 ± 1.75 µM
O=S1(=O)N[C@@H]2[C@H](O)[C@@H](O)[C@H](O)[C@@H](CO)[C@@H]2O1 [compound 4, 1,6-epi-cyclophellitol cyclosulfamidate] | 496 ± 30 µM
